Laboratory results published in patent US5436273A, “Psychoactive propargylamine derivatives used in the treatment of anxiety, psychotic states or aggression” (Lowchol Scientific, Inc., priority 1993, dated 1995).
Read-outs that look alike come from different tables or passages of the source.

What was measured:
Acute toxicity test = settings: mouse, in vivo, po; read-out: LD50
Procedure: CD #1 mice (20-30 g) are used for this test. The animals are individualy housed in glass beakers for a 2 hour period of acclimatization without food and water.

[1] = system: spontaneous motor activity in mice; assay: Inhibition of spontaneous motor activity in mice; format: in vivo, CD #1 mice; settings: for ED50: Mus musculus, ip, 0.5 h
Procedure: 4. Inhibition of Spontaneous Motor Activity in Mice
Female CD #1 mice (20-30 g) are used for this experiment. The effect of the compound to be studied on spontaneous activity was evaluated by an automated […] XYZ system. This system allows the simultaneous quantification of the following parameters:
number of stereotypic movements;
number of vertical movements;
number of clockwise revolutions; and
number of counterclockwise revolutions.
(§1) Two animals are studied simultaneously, one treated and one control. After a 2 hour period of acclimatization to the room, a first activity count of 10 minutes duration is perfomed. The compound to be studied is then administered i.p. and the spontaneous activity is reevaluated 30 minutes later over a period of 10 minutes.

[2] = system: spontaneous motor activity in rats; assay: Inhibition of spontaneous motor activity in rats; format: in vivo, Sprague Dawley rats; settings: for ED50: Rattus norvegicus, ip, 0.5 h, i.p., 30 minutes
Procedure: as §1
5. Inhibition of Spontaneous Motor Activity in Rats
The method is the same as described above for mice, except that because of the size of the animals (Sprague Dawley rats; 300 g), the test and control animals are not evaluated simultaneously, but alternatively.

[3] = system: conditioned avoidance response in rats; assay: Inhibition of conditioned avoidance response in rats; format: in vivo, Sprague Dawley rats; settings: rats
Source text: 6. Inhibition of Conditioned Avoidance Response in Rats
Male Sprague Dawley rats (200-250 g) are trained to avoid an electric foot shock, by continuously changing room with the appropriate visuals and auditory signals, in an automatic 2-way conditioned avoidance apparatus (Coulbourn Instrument Co.). Only the animals that perform at least a 70% avoidance (3 successive training sessions) are kept for the experiment.
The day of the experiment, the selected animals are submitted to a pre-treatment control session. The compound to be studied is then administered i.p. and the animals are placed back in the apparatus for evaluation 30 minutes later. Diazepam was used as a standard.

[4] = system: righting reflex / ethanol narcosis in mice; assay: Potentiation of sleeping time induced by ethanol in mice; format: in vivo, CD #1 mice; settings: subhypnotic dose of ethanol, mice
Procedure: 7. Potentiation of Sleeping Time Induced by Ethanol in Mice
This test was done with male CD #1 mice of 25-35 g. The mice are injected intraperitoneally (8 mice per dose). A subhypnotic dose of ethanol (12 ml/kg of 50% ethanol solution) is administered orally 30 minutes later.
The loss of the righting reflex is evaluated, for each animal, 30 minutes after the administration of the alcohol. It is considered that there is a potentialization of ethanol narcosis if the righting time exceeded 30 seconds.
The results which are reported in Table 7 are expressed in terms of the percentage of animals displaying a loss of the righting reflex versus the administered dose. Chlorpromazine (5 mg/kg i.p.) is used as a standard.

[5] = system: exploratory behavior in rats; assay: Inhibition of exploratory behavior in rats (hole poking); format: in vivo, Sprague-Dawley rats; settings: rats
Procedure: 8. Inhibition of Exploratory Behavior in Rats (Hole Poking).
This test is done with Sprague-Dawley male rats of about 300 g. Activity is evaluated with a […] XYZ activity cage connected to a […] […] DCM-4. A perforated plate (16 holes of 2-5 cm diameter) is placed in the enclosure and on the activity case to register vertical activity. The number of times the rat placed his snout into the holes during a 10 minute period is recorded. The test was started 30 minutes after the interperitoneal injection of the compound to be studied.
The results which are reported in Table 8 are expressed in terms of the dose required to diminish by 50% the exploratory behavior, with reference to animals injected with the carrier only. Diazepam and buspirone are used as standards.

[6] = Effect on body temperature, buspirone in rats; format: in vivo, Sprague Dawley rats
Procedure: Female CD #1 mice (20-30 g) are used. Rectal temperature is recorded before and one hour after s.c. administration of the compound to be studied (N=8/doses×4 doses). The solvent used is sterile water for intravenous injection.
The results which are reported in Table 9 are expressed in terms of the variation of temperature for different doses. Buspirone was tested on Sprague Dawley rats.

[7] = Rotarod neurotoxicity test in mice; settings: mouse, rotarod, po

Question: For O=C1CC2(CCCC2)CC(=O)N1CCCCN1CCN(c2ncccn2)CC1 [Buspirone, reference compound], which LD50 (Acute toxicity test) is on record?
Answer: 622 mg/kg

Question: What about the “inhibition of spontaneous motor activity (in words)” value [1] of the same compound?
Answer: inhibit spontaneous motor activity in mice and rats

Question: What about the ED50 ([1]; i.p., 30 minutes, read-out: ED50, clockwise revolutions) of the same compound?
Answer: 17.9 ± 6.9 mg/kg

Question: What about the ED50 ([1]; i.p., 30 minutes, read-out: ED50, horizontal activity) of the same compound?
Answer: 20.5 ± 16.7 mg/kg

Question: And the ED50 ([1]; i.p., 30 minutes, read-out: ED50, movement time)?
Answer: 19.9 ± 8.9 mg/kg

Question: What about the ED50 ([1]; i.p., 30 minutes, read-out: ED50, stereotypy time) of the same compound?
Answer: 22.7 ± 13.7 mg/kg

Question: What about the ED50 ([1]; i.p., 30 minutes, read-out: ED50, total distance) of the same compound?
Answer: 22.6 ± 15.8 mg/kg

Question: What about the “ED50, counterclockwise revolutions” value ([1]; i.p., 30 minutes) of the same compound?
Answer: no dose-response

Question: And the “ED50, number of movements” value ([1]; i.p., 30 minutes)?
Answer: no dose-response

Question: What about the “ED50, number of stereotypic movements” value ([1]; i.p., 30 minutes) of the same compound?
Answer: no dose-response

Question: What about the “ED50, vertical activity” value ([1]; i.p., 30 minutes) of the same compound?
Answer: no dose-response

Question: And the “ED50, vertical movements” value ([1]; i.p., 30 minutes)?
Answer: no dose-response

Question: And the “ED50, vertical time” value ([1]; i.p., 30 minutes)?
Answer: no dose-response

Question: What about the “inhibition of spontaneous motor activity (in words)” value [2] of the same compound?
Answer: inhibit spontaneous motor activity in mice and rats

Question: What about the ED50 ([2]; read-out: ED50, clockwise revolutions) of the same compound?
Answer: 2.3 ± 0.9 mg/kg

Question: What about the ED50 ([2]; read-out: ED50, counterclockwise revolutions) of the same compound?
Answer: 2.9 ± 0.7 mg/kg

Question: And the ED50 ([2]; read-out: ED50, horizontal activity)?
Answer: 2.7 ± 0.8 mg/kg

Question: And the ED50 ([2]; read-out: ED50, movement time)?
Answer: 3.2 ± 0.6 mg/kg

Question: And the ED50 ([2]; read-out: ED50, number of movements)?
Answer: 5.3 ± 0.9 mg/kg

Question: What about the ED50 ([2]; read-out: ED50, number of stereotypic movements) of the same compound?
Answer: 3.1 ± 0.8 mg/kg

Question: And the ED50 ([2]; read-out: ED50, stereotypy time)?
Answer: 1.7 ± 0.6 mg/kg

Question: And the ED50 ([2]; read-out: ED50, total distance)?
Answer: 2.8 ± 0.7 mg/kg

Question: What about the “inhibition of conditioned avoidance response (in words)” value [3] of the same compound?
Answer: inhibit conditioned avoidance in rats, but are less active than diazepam

Question: And the “potentiation of ethanol (in words)” value [4]?
Answer: more effective than compound N^o 3

Question: What about the ED50 ([5]; Rattus norvegicus, ip, 0.5 h, i.p., 30 minutes, read-out: dose required to diminish by 50% the exploratory behavior) of the same compound?
Answer: 2.8 ± 0.6 mg/kg

Question: What about the “inhibition of exploratory behavior (in words)” value [5] of the same compound?
Answer: more potent, in this respect, than diazepam but they rapidly lose their ability to produce this effect after the first administration

Question: And the “Temp. Difference from Control” value ([6]; dose 10, Sprague Dawley rats)?
Answer: -2.7

Question: And the “Temp. Difference from Control” value ([6]; dose 30, Sprague Dawley rats)?
Answer: -3.6

Question: And the “Temp. Difference from Control” value ([6]; dose 100, Sprague Dawley rats)?
Answer: -5.8

Question: What about the TD50 [7] of the same compound?
Answer: 135 mg/kg
